Consider eleven compounds from PubChem BioAssay (NCI).

Test systems include SNB-19 CNS; U251 CNS; OVCAR-3 ovarian; SR leukemia; PC-3 prostate; SF-295 CNS; KM12 colon; RXF 393 renal.
Common to all, as to test: NCI-60 cell line screen, 48 h

The structures appear in SMILES notation.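 1) Cells in 96-well plates. 2) Compound, 48 h, 5 concentrations. 3) Linear interpolation between surrounding doses. 4) Unreached endpoint = highest concentration. GI50: concentration for 50% inhibition of growth. TGI: total growth inhibition.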

In the case of `NC(CSC(c1ccccc1)(c1ccccc1)c1ccccc1)C(=O)NCC(=O)O` (centres undefined), the GI50 is 8.33 µM with SNB-19 CNS; 3.64 µM in the experiment on U251 CNS; 5.15 µM in the experiment with OVCAR-3 ovarian; 3.48 µM in the experiment on SR leukemia; 5.25 µM in the experiment on PC-3 prostate; 6.1 µM with SF-295 CNS. For the same compound, the GI50 with KM12 colon is 3.96 µM; with RXF 393 renal it was 2.84 µM. Further, the TGI in the experiment on SNB-19 CNS is more than 100 µM; in the experiment with U251 CNS, 63.8 µM; with OVCAR-3 ovarian, 37.2 µM; in the experiment on SR leukemia, 38.2 µM; in the experiment on PC-3 prostate, more than 100 µM; in the experiment with SF-295 CNS, more than 100 µM. Also, the figures for the TGI with KM12 colon and with RXF 393 renal were 38.4 µM and 19.5 µM, respectively.

Consider `CCN(CC)CCNC(Cc1ccccc1)c1ccc(OCc2ccccc2)cc1` (centres undefined), for which the GI50 with SNB-19 CNS is 9.65 µM; in the experiment with U251 CNS, 3.41 µM; in the experiment on OVCAR-3 ovarian, 11.8 µM; in the experiment with SR leukemia it was 2.35 µM; in the experiment with PC-3 prostate, 3.68 µM; in the experiment with SF-295 CNS it was 2.04 µM. The GI50 was 5.22 µM in the experiment on KM12 colon and 3.83 µM in the experiment on RXF 393 renal. In addition, the TGI in the experiment on SNB-19 CNS is 22.8 µM; with U251 CNS, 15.3 µM; in the experiment on OVCAR-3 ovarian it was 25.8 µM; with SR leukemia, 6.74 µM; in the experiment with PC-3 prostate, 15.7 µM; in the experiment on SF-295 CNS, 4.57 µM. The TGI in the experiment with KM12 colon turned out to be 18.2 µM; in the experiment with RXF 393 renal, 18.1 µM.

With `COCCOC(=O)C1=C(O)c2ccccc2S(=O)(=O)N1C`, the TGI in the experiment on SNB-19 CNS, with U251 CNS, in the experiment with OVCAR-3 ovarian, in the experiment on SR leukemia, with PC-3 prostate and with SF-295 CNS was more than 100 µM throughout. Also, the TGI in the experiment on KM12 colon and with RXF 393 renal was more than 100 µM each time.

As for `O=C(O)c1ccc(CN2CCC(CN[C@@H]3C[C@H]3c3ccccc3)CC2)cc1`, the GI50 in the experiment on SNB-19 CNS, with U251 CNS, with OVCAR-3 ovarian, with SR leukemia, with PC-3 prostate and with SF-295 CNS was more than 100 µM each time. Also, the GI50 with KM12 colon and in the experiment with RXF 393 renal was more than 100 µM in each case. In addition, the TGI with SNB-19 CNS, with U251 CNS, with OVCAR-3 ovarian, in the experiment with SR leukemia, in the experiment with PC-3 prostate and in the experiment on SF-295 CNS was more than 100 µM each time. Moreover, the TGI with KM12 colon and in the experiment on RXF 393 renal was more than 100 µM in each case.

As for `COc1ccc(C(C#N)NC23CC4CC(CC(C4)C2)C3)cc1` (centres undefined), the TGI with SNB-19 CNS, with U251 CNS, in the experiment on OVCAR-3 ovarian, in the experiment on SR leukemia, in the experiment on PC-3 prostate and in the experiment with SF-295 CNS was more than 100 µM each time. In addition, the TGI with KM12 colon and in the experiment with RXF 393 renal was more than 100 µM throughout.

For `O=C(O)CCCc1ccc2ccc3ccccc3c2c1`, the TGI in the experiment on SNB-19 CNS, in the experiment with U251 CNS, with OVCAR-3 ovarian, with SR leukemia, in the experiment on PC-3 prostate and in the experiment on SF-295 CNS was more than 100 µM in each case. Further, the TGI in the experiment on KM12 colon and in the experiment with RXF 393 renal was more than 100 µM each time.

As to `COc1ccc2c(c1)C(=O)/C(=C/c1cccc(OCC(=O)c3ccccc3)c1)O2`, the GI50 in the experiment with SNB-19 CNS is 15 µM; in the experiment with U251 CNS it was 7.97 µM; in the experiment with OVCAR-3 ovarian it was 1.83 µM; in the experiment with SR leukemia, 1.47 µM; with PC-3 prostate it was 4.44 µM; in the experiment with SF-295 CNS it was 20 µM. The figures for the GI50 in the experiment on KM12 colon and in the experiment with RXF 393 renal were 4.23 µM and 3.26 µM, respectively. The TGI in the experiment with SNB-19 CNS was 29 µM; in the experiment on U251 CNS, 20.8 µM; in the experiment with OVCAR-3 ovarian it was 3.36 µM; with SR leukemia, 3.26 µM; in the experiment on PC-3 prostate, 17.4 µM; in the experiment with SF-295 CNS, 38.1 µM. The TGI in the experiment with KM12 colon turned out to be 16.1 µM; with RXF 393 renal, 8.01 µM.

Consider `O=C(O)CSCCc1ccccc1`, for which the TGI in the experiment on SNB-19 CNS, in the experiment with U251 CNS, in the experiment on OVCAR-3 ovarian, in the experiment on SR leukemia, with PC-3 prostate and in the experiment with SF-295 CNS was more than 100 µM in each case. Besides, the TGI in the experiment on KM12 colon and in the experiment with RXF 393 renal was more than 100 µM throughout.

With `Cc1ccc(C2=C(c3ccc(C)cc3)C3(c4ccc(C)cc4)C4C(=O)OC(=O)C4C2(c2ccc(C)cc2)S3=O)cc1` (centres undefined), the GI50 in the experiment on SNB-19 CNS was 20.9 µM; in the experiment with U251 CNS, 6.31 µM; with OVCAR-3 ovarian it was 15.5 µM; with SR leukemia, 25.9 µM; in the experiment with PC-3 prostate, 25 µM; in the experiment with SF-295 CNS, 13.1 µM. In addition, the GI50 is 22.9 µM in the experiment on KM12 colon and 13.9 µM in the experiment with RXF 393 renal. In addition, the TGI was more than 100 µM in the experiment on SNB-19 CNS; 24.9 µM in the experiment on U251 CNS; 39.4 µM in the experiment with OVCAR-3 ovarian; more than 100 µM with SR leukemia; more than 100 µM in the experiment with PC-3 prostate; 37.7 µM in the experiment on SF-295 CNS. The TGI in the experiment with KM12 colon was 76.1 µM; in the experiment on RXF 393 renal it was 30.4 µM.

For the compound `N/N=C\c1c2ccccc2c(=O)n2c1oc1ccccc12`, the GI50 is 17.8 µM with SNB-19 CNS; 14.6 µM with U251 CNS; 14.7 µM with OVCAR-3 ovarian; 5.61 µM with SR leukemia; 12.7 µM with PC-3 prostate; 2.61 µM in the experiment with SF-295 CNS. Further, the GI50 in the experiment with KM12 colon is 14.6 µM; in the experiment with RXF 393 renal it was 20 µM. Moreover, the TGI in the experiment on SNB-19 CNS was determined as 38.7 µM; in the experiment on U251 CNS, 27.7 µM; in the experiment on OVCAR-3 ovarian, 28 µM; in the experiment on SR leukemia it was 26 µM; in the experiment with PC-3 prostate it was 26.4 µM; with SF-295 CNS it was 12.3 µM. In addition, the results for the TGI in the experiment with KM12 colon and in the experiment with RXF 393 renal were 27.7 µM and 52.5 µM, respectively.

Turning to `Nc1n[nH]c2cccc(C#Cc3cccc(NC(=O)c4cccc(C(F)(F)F)c4)c3)c12`, the GI50 with SNB-19 CNS was 6.13 µM; in the experiment with U251 CNS, 5.32 µM; in the experiment on OVCAR-3 ovarian it was 5.07 µM; with SR leukemia it was 3.95 µM; in the experiment on PC-3 prostate, 3.96 µM; with SF-295 CNS it was 2.68 µM. The values for the GI50 in the experiment on KM12 colon and in the experiment on RXF 393 renal were 4.52 µM and 1.65 µM, respectively. Besides, the TGI in the experiment with SNB-19 CNS was determined as 18.5 µM; in the experiment with U251 CNS, 17.2 µM; in the experiment with OVCAR-3 ovarian, 17.3 µM; in the experiment on SR leukemia it was 55 µM; in the experiment with PC-3 prostate, 14.6 µM; in the experiment on SF-295 CNS, 10.5 µM. Also, the TGI in the experiment on KM12 colon was 19.8 µM; in the experiment on RXF 393 renal, 3.97 µM.
